Assay results reported in ChEMBL document CHEMBL1201862, “PubChem BioAssay data set” (2004).
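Values below derive from 48-hour exposures of cells grown in 96-well plates, with endpoints linearly interpolated between the two concentrations bracketing the appropriate inhibition level. At the GI50, growth is halved.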 Activity calls are given as the source filed them. Cut-off read from the data, not from the text of the source: active = GI50 up to about 1.1 µM and inactive = higher.

Assays:
Test in all cases: NCI tumour cell line growth inhibition, 48 h
[1] = tested on: A498
[2] = tested on: LOX IMVI
[3] = tested on: CCRF-CEM
[4] = tested on: U-251
[5] = tested on: NCI-H522
[6] = tested on: Hs-578T
[7] = tested on: HOP-62
[8] = tested on: NCI-H226
[9] = tested on: IGROV-1
[10] = tested on: 786-0
[11] = tested on: SR
[12] = tested on: NCI-H23
[13] = tested on: SN12C
[14] = tested on: SNB-19
[15] = tested on: OVCAR-8
[16] = tested on: TK-10
[17] = tested on: SF-295
[18] = tested on: UACC-257
[19] = tested on: EKVX
[20] = tested on: A549

| Structure (SMILES) | GI50 [1] | GI50 [2] | GI50 [3] | GI50 [4] | GI50 [5] | GI50 [6] | GI50 [7] | GI50 [8] | GI50 [9] | GI50 [10] | GI50 [11] | GI50 [12] | GI50 [13] | GI50 [14] | GI50 [15] | GI50 [16] | GI50 [17] | GI50 [18] | GI50 [19] | GI50 [20] |
| --- | --- | --- | --- | --- | --- | --- | --- | --- | --- | --- | --- | --- | --- | --- | --- | --- | --- | --- | --- | --- |
| CC(C)CC(=O)CC(O)C(Cl)(Cl)Cl (stereo unspecified) | > 100 µM (inactive) | > 100 µM (inactive) | > 100 µM (inactive) | > 100 µM (inactive) | 3.95 µM (inactive) | 56.2 µM (inactive) | > 100 µM (inactive) | > 100 µM (inactive) | > 100 µM (inactive) | > 100 µM (inactive) | > 100 µM (inactive) | > 100 µM (inactive) | > 100 µM (inactive) | > 100 µM (inactive) | > 100 µM (inactive) | > 100 µM (inactive) | > 100 µM (inactive) | > 100 µM (inactive) | > 100 µM (inactive) | > 100 µM (inactive) |
| COc1ccc(Nc2c(C#N)c3n(c4ccccc24)c2ccccc2[n+]3C)cc1OC | 4.31 µM (inactive) | 1.9 µM (inactive) | > 100 µM (inactive) | 2.7 µM (inactive) | 3.16 µM (inactive) | 2.86 µM (inactive) | 3.24 µM (inactive) | 3.05 µM (inactive) | 3.58 µM (inactive) | 2.12 µM (inactive) | 6.46 µM (inactive) | 2.94 µM (inactive) | 1.27 µM (inactive) | 3.92 µM (inactive) | 1.67 µM (inactive) | 2.56 µM (inactive) | 2.77 µM (inactive) | 3.78 µM (inactive) | 2.93 µM (inactive) | 3.03 µM (inactive) |
| CC(C)(C)OC(=O)N1C[C@H](CC(=O)OCc2ccccc2)C[C@H]1C(=O)OCC(Cl)(Cl)Cl | 3.44 µM (inactive) | 4.97 µM (inactive) | 1.35 µM (inactive) | 2.56 µM (inactive) | 1.62 µM (inactive) | 8.69 µM (inactive) | 22.8 µM (inactive) | 3.55 µM (inactive) |  | 5.96 µM (inactive) | 2.04 µM (inactive) | 4.49 µM (inactive) | 6.62 µM (inactive) | 7.74 µM (inactive) | 6.07 µM (inactive) | 15.9 µM (inactive) | 2.38 µM (inactive) | 5.89 µM (inactive) | 2.78 µM (inactive) | 4.69 µM (inactive) |
| Cc1ccc(S(=O)(=O)N2CC3OC(C)(C)OC3C2CO)cc1 (stereo unspecified) | > 100 µM (inactive) |  | > 100 µM (inactive) | > 100 µM (inactive) | > 100 µM (inactive) | > 100 µM (inactive) | > 100 µM (inactive) | > 100 µM (inactive) | > 100 µM (inactive) | > 100 µM (inactive) | > 100 µM (inactive) |  | > 100 µM (inactive) |  | > 100 µM (inactive) | > 100 µM (inactive) | > 100 µM (inactive) | > 100 µM (inactive) |  | > 100 µM (inactive) |
| [N-]=[N+]=Nc1cccc(-c2nnc(Cl)cc2O)c1 | > 100 µM (inactive) | > 100 µM (inactive) | > 100 µM (inactive) | > 100 µM (inactive) | > 100 µM (inactive) | > 100 µM (inactive) | > 100 µM (inactive) | > 100 µM (inactive) | > 100 µM (inactive) | > 100 µM (inactive) | > 100 µM (inactive) | > 100 µM (inactive) | > 100 µM (inactive) |  | > 100 µM (inactive) | > 100 µM (inactive) | > 100 µM (inactive) | > 100 µM (inactive) | > 100 µM (inactive) | > 100 µM (inactive) |
| NC(=O)N/N=C1\C[C@H]2CCCC[C@H]2C1 | > 100 µM (inactive) | > 100 µM (inactive) |  | > 100 µM (inactive) | > 100 µM (inactive) | > 100 µM (inactive) | > 100 µM (inactive) | > 100 µM (inactive) | > 100 µM (inactive) | > 100 µM (inactive) | > 100 µM (inactive) |  | > 100 µM (inactive) | 84.7 µM (inactive) | 83.4 µM (inactive) | > 100 µM (inactive) | > 100 µM (inactive) | > 100 µM (inactive) | > 100 µM (inactive) | > 100 µM (inactive) |
| CCOC(=O)C(=CNc1ccc(F)c(F)c1)C(=O)OCC | > 100 µM (inactive) | > 100 µM (inactive) | 54.5 µM (inactive) | > 100 µM (inactive) | 81.7 µM (inactive) | > 100 µM (inactive) | > 100 µM (inactive) | > 100 µM (inactive) | > 100 µM (inactive) | > 100 µM (inactive) | 39.2 µM (inactive) | > 100 µM (inactive) | > 100 µM (inactive) | > 100 µM (inactive) | > 100 µM (inactive) | > 100 µM (inactive) |  | > 100 µM (inactive) | 81.5 µM (inactive) | > 100 µM (inactive) |
| COc1ccc(/C=C\c2cc(OC)c(OC)c(OC)c2)cc1OC(=O)NCCN(C)C | 0.000269 µM (active) | 0.000147 µM (active) | 0.000133 µM (active) | 0.000125 µM (active) | 0.000119 µM (active) | 0.000137 µM (active) | 0.000151 µM (active) | 0.0064 µM (active) |  | 0.00161 µM (active) | 0.000154 µM (active) | 0.000121 µM (active) | 0.000244 µM (active) | 0.000178 µM (active) | 0.000143 µM (active) | 0.297 µM (active) | 0.000119 µM (active) | 0.00839 µM (active) | < 0.0247 µM (active) | 0.00187 µM (active) |
| COC(=O)[C@](C)(Cc1ccccc1)NC(=O)[C@@H](C)N1[C@@H](c2ccccc2)COC1(C)C | 99.8 µM (inactive) | 77.6 µM (inactive) | 89.7 µM (inactive) | 57.7 µM (inactive) | 13.1 µM (inactive) | 24.5 µM (inactive) | > 100 µM (inactive) | 56.2 µM (inactive) | 51.2 µM (inactive) | 72.4 µM (inactive) | 27.5 µM (inactive) | 51.9 µM (inactive) |  | > 100 µM (inactive) | 78.5 µM (inactive) | > 100 µM (inactive) | 53 µM (inactive) | 53.7 µM (inactive) | 57.9 µM (inactive) | 63.8 µM (inactive) |
| CCCCc1ccc(-n2c(C)c(COC(=O)NC)c(COC(=O)NC)c2C)cc1 | 1.1 µM (active) | 4.65 µM (inactive) | 2.92 µM (inactive) | 4.92 µM (inactive) | 2.64 µM (inactive) | 16.6 µM (inactive) | 8.97 µM (inactive) | 1.05 µM (active) |  | 4.08 µM (inactive) | 0.818 µM (active) | 7.28 µM (inactive) | 3.54 µM (inactive) | 13.9 µM (inactive) | 4.16 µM (inactive) | 2.28 µM (inactive) | 8.61 µM (inactive) | 10.6 µM (inactive) | 13 µM (inactive) | 6.08 µM (inactive) |
| O=C(Oc1cc(=O)c(OC(=O)c2ccccc2)co1)c1ccccc1 | > 100 µM (inactive) | 36.9 µM (inactive) |  | 64.9 µM (inactive) | 26.9 µM (inactive) | 93.8 µM (inactive) | 80 µM (inactive) | 85.3 µM (inactive) | > 100 µM (inactive) | 49.4 µM (inactive) | 31.7 µM (inactive) | > 100 µM (inactive) | 45.8 µM (inactive) | 92.7 µM (inactive) | > 100 µM (inactive) | > 100 µM (inactive) | 51.1 µM (inactive) | > 100 µM (inactive) |  | 84.7 µM (inactive) |
